# In patent US8835632B2, “Methods to increase the photostability of dyes” (The University of North Carolina at Chapel Hill, priority 2007, dated 2014):
# Experiment: Absorption and fluorescence spectra, extinction coefficient, fluorescence quantum yield
# Assay type: physicochemical
# Method: Absorption spectra were recorded on a Hewlett-Packard 8453 diode array UV-Vis spectrophotometer (Agilent Technologies, Inc., Santa Clara, Calif.), and fluorescence measurements were taken on a SPEX® Fluorolog 2 spectrofluorometer (HORIBA Jobin Yvon, Inc., Edison, N.J.). Melting points are not corrected. NMR spectra were obtained on a Varian Mercury 300 MHz (Varian, Inc., Palo Alto, Calif.) or on a Bruker 300 MHz DRX 300 spectrometer (Bruker Biospin Corp., Billerica, Mass.). Mass spectra were obtained on a Hewlett-Packard 1100 high-performance liquid chromatograph equipped with an 1100 mass selective detector (MS-ESI) (Agilent Technologies, Inc.).
# With decreasing solvent polarity, the absorption maximum of dyes 1a-b, 2a-d shifted to longer wavelengths, and the intensity of the transition increased (Table 10, FIG. 11).
# The SCRF/VSCRF predicted emission energies and the solute dipole moments before and after the vertical emission process are given in Table 16. The dipole moments of AI-BA(4) and AI-SO(4) are further decreased on the S1 surface after geometry relaxation (in MeOH solution), and then increased during the S1→S0 transition. This observation is consistent with the blue shifts of the emission bands of AI-BA(4) and AI-SO(4) with increasing solvent polarity from C6H6 to MeOH. By contrast, the dipole moment of I-SO further decreases after S1 state geometry relaxation, and then decreases during the vertical emission process. This observation also is in agreement with the red shift of the I-SO emission band with increasing solvent polarity from C6H6 to MeOH. Similarly to the absorption case, a negligible red shift (ΔEem=0.017 eV) was predicted for the emission band of I-TBA with increasing solvent polarity. A small red shift from C6H6 to DMF (with ΔEem=0.020 eV, or Δλmax=6 nm) is observed. The nearly equal emission energy observed in C6H6 and MeOH can again result in the explicit interactions between the solute and solvent molecules.
smiles,measurement,setting,value
CC1(C)c2ccccc2-[n+]2ccc(/C(C#N)=C/C=C/C3=C(O)c4ccccc4S3(=O)=O)cc21 [AI-SO-CN],Absorbance λmax,Butanol (BuOH),619 nm
same,Emission λmax,Butanol (BuOH),640 nm
same,Extinction coefficient ε,Butanol (BuOH),168000
same,Fluorescence quantum yield Φ,Butanol (BuOH),0.29
same,Absorbance λmax,Methanol (MeOH),608 nm
same,Emission λmax,Methanol (MeOH),624 nm
same,Extinction coefficient ε,Methanol (MeOH),163000
same,Fluorescence quantum yield Φ,Methanol (MeOH),0.08
same,Absorbance λmax,Water-Methanol (H2O—MeOH),601 nm
same,Emission λmax,Water-Methanol (H2O—MeOH),624 nm
same,Extinction coefficient ε,Water-Methanol (H2O—MeOH),128000
same,Fluorescence quantum yield Φ,Water-Methanol (H2O—MeOH),0.08
CCn1c(O)c(/C=C/C=C(\C#N)c2cc[n+]3c(c2)C(C)(C)c2ccccc2-3)c(=O)n(CC)c1=S [AI-TBA-CN],Absorbance λmax,Butanol (BuOH),621 nm
same,Emission λmax,Butanol (BuOH),641 nm
same,Extinction coefficient ε,Butanol (BuOH),188000
same,Fluorescence quantum yield Φ,Butanol (BuOH),0.33
same,Absorbance λmax,Methanol (MeOH),606 nm
same,Emission λmax,Methanol (MeOH),632 nm
same,Extinction coefficient ε,Methanol (MeOH),146000
same,Fluorescence quantum yield Φ,Methanol (MeOH),0.22
same,Absorbance λmax,Water-Methanol (H2O—MeOH),593 nm
same,Emission λmax,Water-Methanol (H2O—MeOH),625 nm
same,Extinction coefficient ε,Water-Methanol (H2O—MeOH),77000
same,Fluorescence quantum yield Φ,Water-Methanol (H2O—MeOH),0.17
CCn1c([O-])c(/C=C/C=C/c2cc[n+]3c(c2)C(C)(C)c2ccccc2-3)c(=O)n(CC)c1=S [AI-TBA],Absorbance λmax,Butanol (BuOH),619 nm
same,Extinction coefficient ε,Butanol (BuOH),53000
same,Absorption energy Eabs Exp,C6H6,1.816 eV
same,Absorption energy Eabs Exp,MeOH,2.153 eV
same,Absorbance λmax,Methanol (MeOH),576 nm
same,Extinction coefficient ε,Methanol (MeOH),38000
same,Observed absorption (ε),"Table 10, BuOH",(53000)
same,Observed absorption λmax,"Table 10, BuOH",619 nm
same,Observed absorption (ε),"Table 10, C6H6",(135000)
same,Observed absorption λmax,"Table 10, C6H6",683 nm
same,Observed absorption (ε),"Table 10, CH2Cl2",(104000)
same,Observed absorption λmax,"Table 10, CH2Cl2",655 nm
same,Observed absorption (ε),"Table 10, CH3CN",(54000)
same,Observed absorption λmax,"Table 10, CH3CN",615 nm
same,Observed absorption (ε),"Table 10, DMF",(52000)
same,Observed absorption λmax,"Table 10, DMF",616 nm
same,Observed absorption (ε),"Table 10, DMSO",(56000)
same,Observed absorption λmax,"Table 10, DMSO",607 nm
same,Observed absorption (ε),"Table 10, EtOH",(46000)
same,Observed absorption λmax,"Table 10, EtOH",603 nm
same,Observed absorption (ε),"Table 10, MeOH",(38000)
same,Observed absorption λmax,"Table 10, MeOH",576 nm
same,Observed absorption (ε),"Table 10, OcOH",(97000)
same,Observed absorption λmax,"Table 10, OcOH",633 nm
same,Observed absorption (ε),"Table 10, i-PrOH",(50000)
same,Observed absorption λmax,"Table 10, i-PrOH",618 nm
same,Absorption Exp wavelength,"Table 12, C6H6",683 nm
same,Absorption Exp wavelength,"Table 12, MeOH",576 nm
C[n+]1ccc(/C=C/C2=C([O-])c3ccccc3S2(=O)=O)cc1 [P-SO(2)],Observed absorption (ε),"Table 10, BuOH",(67000)
same,Observed absorption λmax,"Table 10, BuOH",519 nm
same,Observed absorption (ε),"Table 10, C6H6",(169000)
same,Observed absorption λmax,"Table 10, C6H6",538 nm
same,Observed absorption (ε),"Table 10, CH2Cl2",(128000)
same,Observed absorption λmax,"Table 10, CH2Cl2",529 nm
same,Observed absorption (ε),"Table 10, CH3CN",(89000)
same,Observed absorption λmax,"Table 10, CH3CN",546 nm
same,Observed absorption (ε),"Table 10, DMF",(92000)
same,Observed absorption λmax,"Table 10, DMF",522 nm
same,Observed absorption (ε),"Table 10, DMSO",(75000)
same,Observed absorption λmax,"Table 10, DMSO",520 nm
same,Observed absorption (ε),"Table 10, EtOH",(65000)
same,Observed absorption λmax,"Table 10, EtOH",514 nm
same,Observed absorption (ε),"Table 10, MeOH",(57000)
same,Observed absorption λmax,"Table 10, MeOH",505 nm
same,Observed absorption (ε),"Table 10, OcOH",(72000)
same,Observed absorption λmax,"Table 10, OcOH",524 nm
same,Observed absorption (ε),"Table 10, i-PrOH",(72000)
same,Observed absorption λmax,"Table 10, i-PrOH",518 nm
same,Observed emission (Φ),"Table 15, BuOH",0.015
same,Observed emission λmax,"Table 15, BuOH",535 nm
same,Observed emission (Φ),"Table 15, C6H6",0.004
same,Observed emission λmax,"Table 15, C6H6",546 nm
same,Observed emission (Φ),"Table 15, CH2Cl2",0.01
same,Observed emission λmax,"Table 15, CH2Cl2",541 nm
same,Observed emission (Φ),"Table 15, CH3CN",0.011
same,Observed emission λmax,"Table 15, CH3CN",531 nm
same,Observed emission (Φ),"Table 15, DMF",0.025
same,Observed emission λmax,"Table 15, DMF",534 nm
same,Observed emission (Φ),"Table 15, DMSO",0.024
same,Observed emission λmax,"Table 15, DMSO",535 nm
same,Observed emission (Φ),"Table 15, EtOH",0.008
same,Observed emission λmax,"Table 15, EtOH",533 nm
same,Observed emission (Φ),"Table 15, MeOH",0.005
same,Observed emission λmax,"Table 15, MeOH",529 nm
same,Observed emission (Φ),"Table 15, OcOH",0.024
same,Observed emission λmax,"Table 15, OcOH",536 nm
same,Observed emission (Φ),"Table 15, i-PrOH",0.014
same,Observed emission λmax,"Table 15, i-PrOH",532 nm
